Assay results from patent publication US20050226858A1, “Compositions containing reduced coenzyme Q10 and carotenoid” (KANEKA CORPORATION, priority 2004, published 2005).

Columns and labels:
[1] = system: thiobarbituric acid-reactive substances (TBARS) in rat brain homogenate; assay: Antioxidative activity, method 1: TBARS level in oxidised rat brain homogenate; format: biochemical; conditions: ethanol solutions, 100 mM of each substance, 37° C., 27 hours
Experimental: In method 1 of measuring antioxidative activity, a level of thiobarbituric acid-reactive substances (TBARS) generated by an oxidative reaction was determined (Buege J. A. and Aust S. D., Methods Enzymol., 1978, 52: 302).
In this method, rat brain was homogenized in about 2.5 times by weight of saline to prepare a brain homogenate. The brain homogenate (80 μl), an ethanol solution (30 μl) containing antioxidative substance, Eagle's MEM medium (120 μl) , CuSO4 (240 μM), and FeCl3 (240 μM) were mixed and the mixture was maintained at 37° C. for 27 hours. Then, a 20% trichloroacetic acid (TCA) solution (0.9 ml) and a 0.67% thiobarbituric acid (TBA) solution (0.9 ml) were added and the resulting mixture was heated at 100° C. for 30 minutes. After cooling by water, the mixture was centrifuged to separate a supernatant. The absorbance of the supernatant was measured at 532 nm. […] The antioxidative activity (%) of an antioxidative substance was determined by the ratio of a decrease of the TBARS content in the presence of an antioxidative substance to the TBARS content in the absence of an antioxidative substance.
According to the above-mentioned methods, the antioxidative activity (A) in combination of reduced coenzyme Q10 and a carotenoid, the antioxidative activity (B) of reduced coenzyme Q10 used alone, and the antioxidative activity (C) of the carotenoid used alone are measured. […]

[2] = Antioxidative activity, method 2: DPPH spectrometry; conditions: ethanol solutions, 25 μM of each substance, after 20 minutes, calibrated with catechin
Experimental: Since the TBARS is red, method 1 cannot accurately determine absorbance of some carotenoids. Therefore, spectrometry using 1,1-dipehnyl-2-picrylhydrazyl (DPPH) was also conducted (K. Shinohara and T. Suzuki, Shokuhin-Kinou-Kenkyuho (Methods for Functional Food Analysis), 2000, 218).
In method 2, 12 ml of a 200 mM MES buffer (pH 6.0) was added to 12 ml of a 400 μM DPPH ethanol solution. Then, 12 ml ethanol was added to prepare a mixture. An ethanol solution (0.6 ml) containing an antioxidative substance was added to the mixture (0.9 ml). After 20 minutes, the absorbance of the mixture was measured at 510 nm. In this measuring system, the absorbance decreases as the antioxidative activity of the antioxidative substance increases. The antioxidative activity of the antioxidative substance was quantitatively determined using a calibration curve prepared with catechin. Namely, the minimum absorbance when DPPH radicals were completely consumed with an excess amount of catechin corresponded to 100% antioxidative activity. The maximum absorbance when DPPH radicals were not consumed at all corresponded to 0% antioxidative activity. The calibration curve was drawn from these 2 points and the antioxidative activity (%) was determined from the absorbance of the antioxidative substance.
According to the above-mentioned methods, the antioxidative activity (A) in combination of reduced coenzyme Q10 and a carotenoid, the antioxidative activity (B) of reduced coenzyme Q10 used alone, and the antioxidative activity (C) of the carotenoid used alone are measured. The antioxidative activity in combination of reduced coenzyme Q10 and the carotenoid is compared with the sum (additive effect) of the antioxidative activity of reduced coenzyme Q10 alone and the antioxidative activity of the carotenoid alone in order to investigate the synergistic effect.
In the present invention, both the following two formulae were used to correctly determine if the use in combination of reduced coenzyme Q10 and a carotenoid show synergistic effect. […]

| Compound | Antioxidative Activity (%) (Inhibition Ratio of Oxidation) [1] | Antioxidative Activity (%) (Inhibition Ratio of Oxidation) [2] |
| --- | --- | --- |
| CC1=C(/C=C/C(C)=C/C=C/C(C)=C/C=C/C=C(C)/C=C/C=C(C)/C=C/C2=C(C)C(=O)[C@@H](O)CC2(C)C)C(C)(C)C[C@H](O)C1=O [Astaxanthin, astaxanthin] | 21.6% |  |
| CC(C)=CCC/C(C)=C/C=C/C(C)=C/C=C/C(C)=C/C=C/C=C(C)/C=C/C=C(C)/C=C/C=C(\C)CCC=C(C)C [Lycopene, lycopene] |  | 0.9% |
| COc1c(O)c(C)c(C/C=C(\C)CC/C=C(\C)CC/C=C(\C)CC/C=C(\C)CC/C=C(\C)CC/C=C(\C)CC/C=C(\C)CC/C=C(\C)CC/C=C(\C)CCC=C(C)C)c(O)c1OC [Reduced coenzyme Q10, reduced coenzyme Q10] | 10.9% | 10.3% |
| CC1=C(/C=C/C(C)=C/C=C/C(C)=C/C=C/C=C(C)/C=C/C=C(C)/C=C/C2=C(C)CCCC2(C)C)C(C)(C)CCC1 [β-Carotene, β-carotene] |  | 8.8% |
